Source: patent US10316039B2, “P2X3 and/or P2X2/3 compounds and methods” (Asana Biosciences, LLC, priority 2013, dated 2019)

molecular target: T1, P2X2/3 (Homo sapiens, UniProt P56373+Q9UBL9); test: P2X2/3 FLIPR intracellular calcium assay; format: cell-based; settings: agonist at EC75, species (human or rat) not given
T1 sequence (Q9UBL9 1-471): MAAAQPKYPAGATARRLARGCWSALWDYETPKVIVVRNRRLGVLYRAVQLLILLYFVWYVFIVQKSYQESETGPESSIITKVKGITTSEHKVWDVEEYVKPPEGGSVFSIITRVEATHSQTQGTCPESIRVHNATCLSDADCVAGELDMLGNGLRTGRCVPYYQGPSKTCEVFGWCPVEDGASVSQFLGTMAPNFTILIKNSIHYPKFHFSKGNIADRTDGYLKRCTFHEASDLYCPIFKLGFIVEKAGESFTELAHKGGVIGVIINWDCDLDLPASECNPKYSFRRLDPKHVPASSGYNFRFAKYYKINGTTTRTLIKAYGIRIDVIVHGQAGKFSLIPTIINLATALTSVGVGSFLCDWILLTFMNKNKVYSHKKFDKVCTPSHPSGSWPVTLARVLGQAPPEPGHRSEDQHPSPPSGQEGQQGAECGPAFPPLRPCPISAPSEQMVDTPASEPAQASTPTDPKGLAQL
T1 sequence (P56373 1-397): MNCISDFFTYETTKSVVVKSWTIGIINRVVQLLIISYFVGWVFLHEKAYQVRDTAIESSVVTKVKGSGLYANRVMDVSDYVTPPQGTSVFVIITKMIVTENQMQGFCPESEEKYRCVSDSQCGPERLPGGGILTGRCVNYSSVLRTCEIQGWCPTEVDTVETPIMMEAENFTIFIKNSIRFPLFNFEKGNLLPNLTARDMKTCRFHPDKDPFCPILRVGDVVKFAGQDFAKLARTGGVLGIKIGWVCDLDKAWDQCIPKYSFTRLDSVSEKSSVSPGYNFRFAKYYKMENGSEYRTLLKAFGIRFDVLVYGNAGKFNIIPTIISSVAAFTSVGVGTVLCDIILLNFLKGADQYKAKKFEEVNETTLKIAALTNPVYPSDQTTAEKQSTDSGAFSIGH
Method in brief: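 Stable human P2X2/3 TRex293 cells (doxycycline-induced) loaded with Calcium 4 dye; compounds, 11-point half-log series from 2 mM top stock, preincubated 15 min at RT in HBSS/HEPES pH 7.4 with 1.8 mM CaCl2. Agonist added at EC75; fluorescence change versus no-compound wells gave IC50.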

IC50, 1 to 100 nM:
CCc1cnnn1-c1cc(C(=O)NCc2ccc(C)nc2)cn2c(-c3ccc(C)s3)cnc12 [Example 22], C[C@H](NC(=O)c1cc(-n2nncc2C(F)F)c2ncc(-c3ccc(Cl)s3)n2c1)c1nnc[nH]1 [Example 38], CC[C@H](NC(=O)c1cc(-n2nncc2C(F)F)c2ncc(-c3ccc(C)s3)n2c1)c1nnc[nH]1 [Example 52]
